Assay results published in ChEMBL document CHEMBL3621173, “Evaluation of functional groups as acetyl-lysine mimetics for BET bromodomain inhibition” (Medchemcomm, 2014).
The source made the active and inactive calls. No cut-off for these calls is given here.

Tests used:
[1] = target: T1, Bromodomain-containing protein 4 (Homo sapiens, UniProt O60885); experiment: Inhibition of BRD4 (D1) (unknown origin) at 5 uM incubated for 30 mins using histone H4 peptide (1-21) K5/8/12/16Ac-biotin by alpha screen assay
[2] = target: T2, Bromodomain-containing protein 3 (Homo sapiens, UniProt Q15059); experiment: Inhibition of BRD3 (D1) (unknown origin) at 5 uM incubated for 30 mins using histone H4 peptide (1-21) K5/8/12/16Ac-biotin by alpha screen assay
Target sequence in this assay (Q15059 2-726 limits assumed): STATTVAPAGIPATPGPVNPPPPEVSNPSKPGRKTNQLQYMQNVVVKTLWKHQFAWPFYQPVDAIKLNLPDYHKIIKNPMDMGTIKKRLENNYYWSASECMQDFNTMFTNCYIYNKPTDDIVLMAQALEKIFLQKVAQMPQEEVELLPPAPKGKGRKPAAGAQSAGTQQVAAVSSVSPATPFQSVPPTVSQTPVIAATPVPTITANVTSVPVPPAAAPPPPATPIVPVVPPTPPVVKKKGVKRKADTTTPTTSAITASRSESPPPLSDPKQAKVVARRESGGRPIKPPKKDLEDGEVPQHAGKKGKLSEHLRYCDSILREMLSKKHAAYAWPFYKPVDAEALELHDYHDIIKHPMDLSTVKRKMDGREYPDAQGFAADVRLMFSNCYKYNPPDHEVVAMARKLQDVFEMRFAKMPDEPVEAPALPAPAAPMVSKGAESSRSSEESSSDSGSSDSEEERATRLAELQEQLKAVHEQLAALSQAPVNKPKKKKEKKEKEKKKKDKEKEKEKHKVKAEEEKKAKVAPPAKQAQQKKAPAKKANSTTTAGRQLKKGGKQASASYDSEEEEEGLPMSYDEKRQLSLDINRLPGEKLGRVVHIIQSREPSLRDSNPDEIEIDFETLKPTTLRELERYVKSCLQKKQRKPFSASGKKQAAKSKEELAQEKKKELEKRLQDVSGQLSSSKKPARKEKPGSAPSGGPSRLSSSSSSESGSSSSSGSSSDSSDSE

[3] = target: Bromodomain-containing protein 2 (Homo sapiens) (UniProt P25440); experiment: Inhibition of BRD2 (D1) (unknown origin) at 5 uM incubated for 30 mins using histone H4 peptide (1-21) K5/8/12/16Ac-biotin by alpha screen assay
[4] = target: T2, Bromodomain-containing protein 3; experiment: Inhibition of BRD3 (D1) (unknown origin) incubated for 30 mins using histone H4 peptide (1-21) K5/8/12/16Ac-biotin by alpha screen assay
Target sequence in this assay (Q15059 whole entry): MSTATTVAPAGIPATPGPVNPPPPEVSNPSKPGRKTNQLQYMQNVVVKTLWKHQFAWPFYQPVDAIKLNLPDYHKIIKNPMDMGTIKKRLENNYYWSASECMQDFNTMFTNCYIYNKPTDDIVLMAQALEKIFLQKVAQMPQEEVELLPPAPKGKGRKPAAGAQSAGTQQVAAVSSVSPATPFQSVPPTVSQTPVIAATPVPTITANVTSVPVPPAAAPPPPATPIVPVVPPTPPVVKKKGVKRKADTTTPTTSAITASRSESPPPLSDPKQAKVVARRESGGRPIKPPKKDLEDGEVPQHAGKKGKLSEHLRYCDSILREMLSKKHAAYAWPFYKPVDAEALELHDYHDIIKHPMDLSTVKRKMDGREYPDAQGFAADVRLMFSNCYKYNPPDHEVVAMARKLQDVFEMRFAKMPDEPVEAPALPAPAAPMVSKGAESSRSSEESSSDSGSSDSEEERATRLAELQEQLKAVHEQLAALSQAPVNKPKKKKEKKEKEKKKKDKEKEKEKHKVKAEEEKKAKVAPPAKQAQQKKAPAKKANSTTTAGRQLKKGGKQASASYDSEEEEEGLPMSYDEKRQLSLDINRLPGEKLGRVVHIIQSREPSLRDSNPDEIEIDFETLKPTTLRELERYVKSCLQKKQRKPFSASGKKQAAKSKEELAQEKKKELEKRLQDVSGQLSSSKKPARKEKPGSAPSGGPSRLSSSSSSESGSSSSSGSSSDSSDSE

[5] = target: T1, Bromodomain-containing protein 4; experiment: Inhibition of BRD4 (D1) (unknown origin) incubated for 30 mins using histone H4 peptide (1-21) K5/8/12/16Ac-biotin by alpha screen assay
[6] = Degradation half-life in mouse liver microsomes; type: ADME
[7] = Intrinsic clearance in human liver microsomes; type: ADME; conditions: read-out: CLH
[8] = Intrinsic clearance in rat liver microsomes; type: ADME; conditions: read-out: CLH
[9] = Intrinsic clearance in mouse liver microsomes; type: ADME; conditions: read-out: CLH
[10] = Degradation half-life in rat liver microsomes; type: ADME
[11] = Degradation half-life in human liver microsomes; type: ADME

Bromodomain-containing protein 2 (Homo sapiens), sequence (P25440 whole entry, looked up): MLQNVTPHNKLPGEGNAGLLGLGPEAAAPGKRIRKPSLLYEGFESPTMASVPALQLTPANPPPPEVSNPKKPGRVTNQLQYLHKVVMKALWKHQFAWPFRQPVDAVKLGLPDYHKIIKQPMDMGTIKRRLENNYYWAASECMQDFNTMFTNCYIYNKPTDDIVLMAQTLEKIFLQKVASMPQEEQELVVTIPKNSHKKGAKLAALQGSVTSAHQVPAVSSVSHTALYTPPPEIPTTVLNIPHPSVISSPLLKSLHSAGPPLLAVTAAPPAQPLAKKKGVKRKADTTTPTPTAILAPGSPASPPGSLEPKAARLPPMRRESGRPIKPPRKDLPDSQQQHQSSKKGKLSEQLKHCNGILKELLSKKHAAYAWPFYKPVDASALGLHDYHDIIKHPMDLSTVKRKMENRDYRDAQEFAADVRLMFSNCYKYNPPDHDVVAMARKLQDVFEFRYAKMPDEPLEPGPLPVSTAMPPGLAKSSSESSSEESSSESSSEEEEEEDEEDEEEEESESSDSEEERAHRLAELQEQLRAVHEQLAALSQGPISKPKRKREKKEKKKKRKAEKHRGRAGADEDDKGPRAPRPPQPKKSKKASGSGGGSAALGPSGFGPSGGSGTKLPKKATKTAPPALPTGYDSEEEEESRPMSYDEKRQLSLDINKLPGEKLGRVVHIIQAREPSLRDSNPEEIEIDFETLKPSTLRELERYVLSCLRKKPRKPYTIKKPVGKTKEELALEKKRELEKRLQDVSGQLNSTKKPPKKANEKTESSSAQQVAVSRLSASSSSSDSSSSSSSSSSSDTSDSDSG

SMILES | inhibition [1] | inhibition [2] | inhibition [3] | further results
COc1ccc(-c2ccccc2NS(C)(=O)=O)cc1S(=O)(=O)NC1CCCC1 | inactive | inactive | inactive | 
Cc1ccc(-c2nnn(C)n2)cc1S(=O)(=O)NC1CCCC1 | inactive | inactive | inactive | 
COc1ccc(-c2ccnn2C)cc1S(=O)(=O)NC1CCCC1 | Active | Active | Active | IC50 [4]: 1.71 µM; IC50 [5]: 10.1 µM
Cc1sc2c(c1C)C(c1ccc(Cl)cc1)=N[C@@H](CC(=O)OC(C)(C)C)c1nnc(C)n1-2 |  |  |  | half-life [6]: 0.117 h; microsomal CLint [7]: 136 µL/min/mg; microsomal CLint [8]: 129 µL/min/mg; microsomal CLint [9]: 166 µL/min/mg
COc1ccc(-c2c(C)nn(C)c2C)cc1S(=O)(=O)NC1CCCC1 | inactive | inactive | inactive | 
COc1ccc(-c2cccc(NC(C)=O)c2)cc1S(=O)(=O)NC1CCCC1 | inactive | inactive | inactive | 
COc1ccc(-c2c(C)n[nH]c2C)cc1S(=O)(=O)NC1CCCC1 | Active | Active | Active | IC50 [4]: 1.32 µM; IC50 [5]: 2.89 µM
COc1ccc(-c2ccc(N)cc2C)cc1S(=O)(=O)NC1CCCC1 | inactive | inactive | inactive | 
COc1ccc(-c2ccc(N)nc2C)cc1S(=O)(=O)NC1CCCC1 | Active | Active | Active | 
Cc1ccc(-n2cnnc2C)cc1S(=O)(=O)NC1CCCC1 | inactive | inactive | inactive | IC50 [4]: ≥ 10 µM; IC50 [5]: ≥ 10 µM
Cc1ccc(-n2c(C)nnc2C)cc1S(=O)(=O)NC1CCCC1 | inactive | inactive | inactive | IC50 [4]: ≥ 10 µM; IC50 [5]: ≥ 10 µM; half-life [10]: 1.78 h; half-life [11]: 2.88 h; half-life [6]: 1.42 h; microsomal CLint [7]: 10 µL/min/mg; microsomal CLint [8]: 16 µL/min/mg; microsomal CLint [9]: 20 µL/min/mg
CC(=O)NCc1ccc(C)c(S(=O)(=O)NC2CCCC2)c1 | inactive | inactive | inactive | 
CC(=O)Nc1ccc(C)c(S(=O)(=O)NC2CCCC2)c1 | inactive | inactive | inactive | 
COc1cc2c(cc1-c1c(C)noc1C)ncc1[nH]c(=O)n([C@H](C)c3ccccn3)c12 |  |  |  | half-life [10]: 3.45 h; half-life [11]: 3.9 h; half-life [6]: > 4.12 h; microsomal CLint [7]: 7 µL/min/mg; microsomal CLint [8]: 8 µL/min/mg; microsomal CLint [9]: < 7 µL/min/mg
COc1ccc(-c2c(C)noc2C)cc1S(=O)(=O)NC1CCCC1 | Active | Active | Active | IC50 [4]: 0.2 µM; IC50 [5]: 1.2 µM
COc1ccc(-c2cccc(N)c2C)cc1S(=O)(=O)NC1CCCC1 | inactive | inactive | inactive | 
Cc1ccc(NS(C)(=O)=O)cc1S(=O)(=O)NC1CCCC1 | inactive | inactive | inactive | 

SMILES | inhibition [1] | inhibition [2] | inhibition [3] | further results
Cc1ccc(-c2nnnn2C)cc1S(=O)(=O)NC1CCCC1 | inactive | inactive | inactive | 
COc1ccc(-c2ccc(N)[n+]([O-])c2C)cc1S(=O)(=O)NC1CCCC1 | Active | Active |  | 
Cc1ccc(-c2c(C)noc2C)cc1S(=O)(=O)NC1CCCC1 | Active | Active | Active | half-life [10]: 0.0333 h; half-life [11]: 0.117 h; half-life [6]: 0.0667 h; microsomal CLint [7]: 246 µL/min/mg; microsomal CLint [8]: 711 µL/min/mg; microsomal CLint [9]: 461 µL/min/mg
COc1ccc(-c2cccnc2)cc1S(=O)(=O)NC1CCCC1 | inactive | inactive | inactive | 
COc1ccc(-c2cn[nH]c2)cc1S(=O)(=O)NC1CCCC1 | inactive | inactive | inactive | 
COc1ccc(-c2cnn(C)n2)cc1S(=O)(=O)NC1CCCC1 | Active |  |  | IC50 [4]: 10 µM; IC50 [5]: 4 µM
Cc1nc(-c2ccc(C)c(S(=O)(=O)NC3CCCC3)c2)no1 | inactive | inactive | inactive | 
COc1ccc(-c2cc[n+]([O-])cc2)cc1S(=O)(=O)NC1CCCC1 | inactive | inactive | inactive | 
COc1ccc(-c2ccc(N)nc2)cc1S(=O)(=O)NC1CCCC1 | inactive | inactive | inactive | 
COc1ccc(-c2ccncc2)cc1S(=O)(=O)NC1CCCC1 | inactive | inactive | inactive | 
COc1ccc(-c2cc(N)ccc2C)cc1S(=O)(=O)NC1CCCC1 | inactive | inactive | inactive | 
COc1ccc(-c2ccsc2C)cc1S(=O)(=O)NC1CCCC1 | inactive | inactive | inactive | 
COc1ccc(-c2ccsc2)cc1S(=O)(=O)NC1CCCC1 | inactive | inactive | inactive | 
COc1ccc(-c2ccc(NC(C)=O)cc2)cc1S(=O)(=O)NC1CCCC1 | inactive | inactive | inactive | 
COc1ccc(-c2cnc(N)nc2)cc1S(=O)(=O)NC1CCCC1 | inactive | inactive | inactive | 
COc1ccc(-c2cn(C)nn2)cc1S(=O)(=O)NC1CCCC1 | inactive | inactive | inactive | 
